Experimental data as given in patent US10905757B2, “Cross-reactive T cell epitopes of HIV, SIV, and FIV for vaccines in humans and cats” (priority 2012, dated 2021).
“Also recorded” adds a separate entry of the source.

Legend:
[1] = test system: PBMC from SIV-infected rhesus macaques; assay type: cell-based, rhesus macaque; conditions: macaques R395, R397, R416, R422
[2] = test system: PBMC from FIV-vaccinated cats; experiment: IFNγ ELISpot, PBMC from FIV-vaccinated cats (prototype vaccine, or prime plus MAP boosts); assay type: cell-based, cat; conditions: for IFNγ (SFU): prime 1x IWV, post-second MAP boost, peptide or MAP as culture stimulant, >50 positive
From the text: (§1) Peptide Fp4-3 (left), peptide Fp14-1 (middle) and MAP1 [right] were culture stimulants. IL2 and IFNγ ELISpot results of >50 spot forming units (SFU/10^6 PBMC) and CFSE-proliferation of >2 are considered positive (bolded). The prime-boost vaccination induced IL2 responses in 3 of 4 cats and IFNγ response in one. Larger responses were induced by MAP1 than individual peptides in culture.

[3] = test system: PBMC from FIV-vaccinated cats; experiment: IL2 ELISpot, PBMC from FIV-vaccinated cats (prototype vaccine, or prime plus MAP boosts); assay type: cell-based, cat; conditions: for IL2 (SFU): prime 1x IWV, post-second MAP boost, peptide or MAP as culture stimulant, >50 positive
From the text: as §1

[4] = test system: CD3+CD8+ T cells from FIV-vaccinated cats; experiment: CFSE-proliferation, CD8+ T cells from FIV-vaccinated cats; assay type: cell-based, cat; conditions: prime 1x IWV, post-second MAP boost, peptide or MAP as culture stimulant, >2 positive
From the text: (§2) FIGS. 32A and 32B. T-cell proliferation responses to FIV p24 peptide pools by vaccinated cats. […] (FIG. 32A) and CD3^+CD8^+ (FIG. 32B) T-cell proliferation responses are shown for prototype FIV-vaccinated cats. The FIV vaccinated cats were semi-inbred cats with blue, dark red, and pink/green bars from different MHC-lineage colonies. The semi-inbred cats with light pink and green bars are from the same […] lineage. Pools Fp9 and Fp14 are recognized by both HIV^+ subjects and vaccinated cats (i.e., evolutionarily conserved [EC] epitopes) but pools Fp3 and Fp4 are not recognized by HIV^+ subjects (i.e., non-EC epitopes). The IFNγ responses of these cats were either low or below the cut-off threshold of 50 SFU/1×10^6 PBMC. The peptides that stimulated the most proliferation responses: non-EC peptide Fp4-3 in pool Fp4 and EC peptide Fp14-1 in pool Fp14 were used in in vivo study below (FIG. 34).
(§3) FIGS. 33A-33C. IFNγ and T-cell proliferation responses to Fp9 and Fp14 by the FIV-vaccinated cats and FIV-infected cats. The T cells or PBMC from 32 FIV-vaccinated cats were stimulated with either Fp9 or Fp14 and evaluated for proliferation (FIG. 33A) or IFNγ (FIG. 33B) responses. In addition, the PBMC from 32 FIV-infected cats at 22-52 weeks of infection and 20 HIV-1 p24-immunized cats were tested for IFNγ responses to the same peptide pools (FIG. 33B). Three types of laboratory cats were used in these studies: semi-inbred line 1 (Semi-Inbred 1), semi-inbred line 2 (Semi-Inbred 2), and outbred cats (Outbred) from laboratory cat vendors. Semi-inbred cats have been inbred for 3-5 generations with defined feline leukocyte antigen (FLA) alleles and are divided into two FLA haplotype lines. FIV vaccine consisted of prototype dual-subtype FIV vaccine (Coleman et al. 2014). The insert in each panel defines the numbers of each type of cats as well as vaccination (Vac.) or infection (Infect.) status. The number of cat responders used varies between the analyses performed for the individual Fp14 peptides (FIG. 33C, left for IFNγ and right for proliferation).
as §1

[5] = test system: CD4+ T cells from FIV-vaccinated cats; experiment: CFSE-proliferation, CD4+ T cells from FIV-vaccinated cats; assay type: cell-based, cat; conditions: for Proliferation (CFSE^low) CD4^+ T cells: prime 1x IWV, post-second MAP boost, peptide or MAP as culture stimulant, >2 positive
From the text: as §2, §3, §1

[6] = test system: FIV infection of naïve cat PBMC; experiment: In vitro FIV enhancing/inhibitory (E/I) assay in PBMC from naïve SPF cats (RT titer); assay type: cell-based; conditions: PBMC from naïve cats
Description: FIG. 35. FIV-enhancing versus inhibitory epitopes on peptides and MAPs used in pilot MAP Study. […] Abbreviation: MAP1 plus MAP2 mix (MAP1+2).
FIG. 36A and 36B. FIV/HIV-1 enhancing versus inhibitory epitopes. […] Four epitope peptides were tested in an in vivo efficacy study with prototype vaccine prime and MAP boosts against pathogenic FIV challenge (see MAP section).
To test the possibility that Fp4-3 peptide may be enhancing FIV infection, we performed an in vitro FIV enhancing/inhibitory analysis with all MAP peptides and immunogens. […]. Since MAP2 consisted of peptides FRT3-3 and FRT3-4 with a natural overlap (FIG. 34), such overlap may have blocked the enhancing activity of peptide FRT3-3 while allowing the inhibitory activity of peptide FRT3-4. […] Moreover, none of the MAP vaccinated cats had early detection or enhancement in viral load compared to the control cats. Perhaps, the strong immunity generated by the MAP2 has blocked the enhancing activity of the MAP1 when boosted together (Group 1, Table 3). To test this possibility, in vitro study is currently undergoing to evaluate whether MAP2 can block FIV enhancing activity of MAP1. Furthermore, more cats will be vaccinated with MAP 1b and MAP2 to determine the levels of cytotoxins generated to peptides Fp14-1, FRT3-3 and FRT3-4. Since these peptides have induced CTL-associated cytotoxin expression in T cells from HIV^+ subjects (FIGS. 31A-31B; FIG. 5 in (Sanou et al. 2013)), these EC peptides may also mediate their in vivo effects by inducing anti-FIV specific CTL activity.
However, only peptide Fp4-3 correlated with the in vitro enhancement induced by MAP1. Since the in vitro E/I assay uses PBMC from naïve specific pathogen free (SPF) cats, it is unlikely that the in vitro stimulation of anti-FIV CTLs occurred in the culture and eliminated the infected cells. More likely, these enhancing or inhibitory peptides induced cytokines (enhancement: IFNγ, TNFα, GM-CSF; inhibition: IFNα, IL10), chemokines (inhibition: MIP1α, MIP1β, SDF-1, RANTES), or cellular restriction factors (inhibition: Trim5α, APOBEC3g) that either enhanced or inhibited FIV/HIV-1 infection. […] IFNγ is produced during inflammatory responses to HIV-1 infection (Ipp and Zemlin 2013). Thus, high levels of antiviral cellular immune responses are needed while minimizing both non-specific and viral-specific activation of CD4^+ T cells which can enhance viral replication (Lane 2010). Removal of the enhancing epitopes on FIV and HIV-1 immunogens will be critical to produce an effective HIV-1 vaccine. To accomplish this goal, we will design a vaccine based on antiviral epitopes directed at inducing viral-specific CD4^+ CTLs, CD8^+ CTLs and polyfunctional T cells, and identifying viral enhancing epitopes to remove from vaccine candidates.

[7] = cat DVB, boost-1 MAP1b, boost-2 MAP1b
[8] = cat DVD, boost-1 MAP1, boost-2 MAP1
[9] = cat QVQ, boost-1 MAP1b, boost-2 MAP1b
[10] = cat QVW, boost-1 MAP1, boost-2 MAP1

Sequence | reactivity of PBMC from individual infected macaques [1] | IFNγ (SFU) [2, 7] | IFNγ (SFU) [2, 8] | IFNγ (SFU) [2, 9] | IFNγ (SFU) [2, 10] | IL2 (SFU) [3, 7] | IL2 (SFU) [3, 8] | IL2 (SFU) [3, 9] | IL2 (SFU) [3, 10] | Proliferation (CFSE^low) CD8^+ T cells [4, 7] | Proliferation (CFSE^low) CD8^+ T cells [4, 8] | Proliferation (CFSE^low) CD8^+ T cells [4, 9] | Proliferation (CFSE^low) CD8^+ T cells [4, 10] | Proliferation (CFSE^low) CD4^+ T cells [5, 7] | Proliferation (CFSE^low) CD4^+ T cells [5, 8] | Proliferation (CFSE^low) CD4^+ T cells [5, 9] | Proliferation (CFSE^low) CD4^+ T cells [5, 10] | effect on in vitro FIV infection [6] | other results
KWRKLVDFRELNKR [H3-4] | reacted |  |  |  |  |  |  |  |  |  |  |  |  |  |  |  |  |  | 
PTDMATLIMAAPGCA [Fp4-3] |  | 0/0 SFU/10^6 PBMC | 132 SFU/10^6 PBMC | 0/0 SFU/10^6 PBMC | 21 SFU/10^6 PBMC | 0 SFU/10^6 PBMC | 95 SFU/10^6 PBMC | 0 SFU/10^6 PBMC | 0/0 SFU/10^6 PBMC | 0 | 6 | 0 | 0 | 0 | 3 | 1/1 | 0 | significant enhancement; also recorded: significantly enhanced | IFNγ responses in PBMC from FIV-vaccinated cats (in words) [2]: induced predominantly; also recorded: high levels; IL2 responses in PBMC from FIV-vaccinated cats (in words) [3]: induced predominantly; CD4+ T-cell proliferation in FIV-vaccinated cats (in words) [5]: induced predominantly
PTDLATLILAAPGSARVKRDQEQNTAEVKLYLK [MAP1, palmitated multiple antigenic peptide: Fp4-3/furin-sensitive-linker/Fp14-1] |  | [0] SFU/10^6 PBMC | [206] SFU/10^6 PBMC | [43] SFU/10^6 PBMC | [0] SFU/10^6 PBMC | [76] SFU/10^6 PBMC | [296] SFU/10^6 PBMC | [165] SFU/10^6 PBMC | [9] SFU/10^6 PBMC | [10] | [9] | [7] | [6] | [1] | [2] | [7] | [7] | significant enhancement | 
WRKLVDFRE [shorter peptide of HRT3] | reacted |  |  |  |  |  |  |  |  |  |  |  |  |  |  |  |  |  | 
